Source: article PMC5573538, “Contrasting effects of phosphatidylinositol 4,5‐bisphosphate on cloned TMEM16A and TMEM16B channels” (British Journal of Pharmacology, 2017)

Assays:
TMEM16B = molecular target: T1, TMEM16B (Mus musculus, UniProt Q8CFW1); assay: inside-out patch clamp, excised patches from HEK-293T cells, +[…] mV, […] Ca2+ (partial current inhibition); type: biochemical; conditions: read-out: K i
T1 construct: gene Ano2; mouse TMEM16B isoform A, expressed in HEK-293T cells
T1 sequence (Q8CFW1 1-1002): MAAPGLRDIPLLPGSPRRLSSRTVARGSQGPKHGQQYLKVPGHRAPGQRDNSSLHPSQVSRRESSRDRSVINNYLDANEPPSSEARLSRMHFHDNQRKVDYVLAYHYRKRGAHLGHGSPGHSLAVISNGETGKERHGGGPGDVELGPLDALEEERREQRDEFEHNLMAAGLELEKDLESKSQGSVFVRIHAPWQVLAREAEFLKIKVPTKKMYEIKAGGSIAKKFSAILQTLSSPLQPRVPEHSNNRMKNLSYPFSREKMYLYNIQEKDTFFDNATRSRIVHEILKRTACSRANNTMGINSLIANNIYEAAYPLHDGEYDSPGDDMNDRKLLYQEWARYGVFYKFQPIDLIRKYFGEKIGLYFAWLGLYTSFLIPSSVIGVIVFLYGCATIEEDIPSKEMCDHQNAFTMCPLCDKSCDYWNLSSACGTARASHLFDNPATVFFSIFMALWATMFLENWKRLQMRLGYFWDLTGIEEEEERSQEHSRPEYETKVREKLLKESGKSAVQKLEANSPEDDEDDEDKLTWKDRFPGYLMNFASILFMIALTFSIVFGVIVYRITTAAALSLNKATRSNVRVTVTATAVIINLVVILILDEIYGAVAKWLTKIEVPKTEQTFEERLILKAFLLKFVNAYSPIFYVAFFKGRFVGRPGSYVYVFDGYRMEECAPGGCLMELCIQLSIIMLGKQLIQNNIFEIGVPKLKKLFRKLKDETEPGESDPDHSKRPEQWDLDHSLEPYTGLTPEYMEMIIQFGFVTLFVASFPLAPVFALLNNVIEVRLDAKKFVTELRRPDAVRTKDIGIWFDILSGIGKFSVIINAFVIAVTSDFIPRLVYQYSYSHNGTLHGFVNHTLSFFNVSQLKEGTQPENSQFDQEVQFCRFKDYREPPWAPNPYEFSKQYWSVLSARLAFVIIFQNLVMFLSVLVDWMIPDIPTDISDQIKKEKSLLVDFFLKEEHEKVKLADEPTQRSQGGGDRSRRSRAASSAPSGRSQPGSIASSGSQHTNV

TMEM16A = molecular target: T2, TMEM16A (Mus musculus, UniProt Q8BHY3); assay: inside-out patch clamp, excised patches from HEK-293T cells, +[…] mV, […] Ca2+ (current activation); type: biochemical; conditions: read-out: K a
T2 construct: gene Ano1; mouse TMEM16A isoform (ac), expressed in HEK-293T cells
T2 sequence (Q8BHY3 1-960): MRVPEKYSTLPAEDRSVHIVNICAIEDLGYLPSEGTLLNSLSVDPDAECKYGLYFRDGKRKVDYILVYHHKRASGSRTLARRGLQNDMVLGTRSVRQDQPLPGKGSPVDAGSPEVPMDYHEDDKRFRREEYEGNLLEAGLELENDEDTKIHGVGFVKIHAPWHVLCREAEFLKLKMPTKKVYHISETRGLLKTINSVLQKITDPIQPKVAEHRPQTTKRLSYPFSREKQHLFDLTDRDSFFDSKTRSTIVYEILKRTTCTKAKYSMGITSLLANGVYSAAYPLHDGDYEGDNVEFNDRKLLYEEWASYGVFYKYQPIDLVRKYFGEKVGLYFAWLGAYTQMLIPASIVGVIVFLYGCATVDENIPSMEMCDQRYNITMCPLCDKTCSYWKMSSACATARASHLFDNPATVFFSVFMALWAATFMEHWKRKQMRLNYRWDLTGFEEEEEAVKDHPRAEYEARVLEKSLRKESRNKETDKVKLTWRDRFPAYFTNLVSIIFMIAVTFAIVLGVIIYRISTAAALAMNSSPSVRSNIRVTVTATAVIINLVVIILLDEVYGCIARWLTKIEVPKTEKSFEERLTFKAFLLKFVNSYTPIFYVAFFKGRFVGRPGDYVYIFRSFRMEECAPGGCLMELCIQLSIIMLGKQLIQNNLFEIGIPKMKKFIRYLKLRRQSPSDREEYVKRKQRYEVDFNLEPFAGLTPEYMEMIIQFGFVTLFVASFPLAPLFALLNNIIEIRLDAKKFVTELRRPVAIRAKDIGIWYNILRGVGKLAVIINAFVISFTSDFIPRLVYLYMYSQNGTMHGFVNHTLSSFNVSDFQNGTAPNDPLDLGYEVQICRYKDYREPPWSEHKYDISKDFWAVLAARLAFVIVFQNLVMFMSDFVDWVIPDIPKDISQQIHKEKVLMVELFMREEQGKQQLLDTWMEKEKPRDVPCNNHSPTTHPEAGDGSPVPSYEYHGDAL

CCCCCCCC(=O)OC[C@H](COP(=O)(O)O[C@@H]1[C@H](O)[C@H](O)[C@@H](OP(=O)(O)O)[C@H](OP(=O)(O)O)[C@H]1O)OC(=O)CCCCCCC [diC8‐PIP2]
IC50 (TMEM16B): 46 ± 2 µM
EC50 (TMEM16A): 53 ± 9 µM
